# Key:
# [1] = target: T1, Human TRPA1 expressing CHO cells (Homo sapiens, UniProt O75762); test: 45Calcium uptake assay, inhibition of AITC induced calcium uptake (human); type: cell-based; conditions: human TRPA1 CHO cells, AITC 30 μM; for inhibition at 1 µM: compound 1.0 μM, read-out: Percentage inhibition at 1.0 μM; for inhibition at 10 µM: compound 10.0 μM, read-out: Percentage inhibition at 10.0 μM; for IC50: read-out: Human IC50 value (Range)
# T1 construct: expressed in transfected cells; host or cells: CHO cells (G-418 selection)
# Protocol: (§1) Screening for TRPA1 Antagonist Using the ^45Calcium Uptake Assay:
# (§2) The inhibition of TRPA1 receptor activation was measured as inhibition of allyl isothiocyanate (AITC) induced cellular uptake of radioactive calcium.
# (§3) Test compounds were dissolved in 100% DMSO to prepare 10 mM stock and then diluted using plain medium with 0.1% BSA and 1.8 mM CaCl2 to get the desired concentration. The final concentration of DMSO in the reaction was 0.5% (v/v). […] Rat TRPA1 expressing CHO cells were grown in F-12 DMEM medium with 10% FBS, 1% penicillin-streptomycin solution, and 400 μg/ml of Zeocin. […] Cells were treated with the test compounds for 10 minutes followed by the addition of AITC at a final concentration of 30 μM (for human TRPA1) and/or 10 μM (for rat TRPA1) and 5 μCi/ml ^45Ca^+2 for 3 minutes. Cells were washed and lysed using a buffer containing 1% Triton X-100, 0.1% deoxycholate and 0.1% SDS. Radioactivity in the lysate was measured in a Packard TopCount after addition of liquid scintillant.
# (§4) Concentration response curves were plotted as a % of maximal response obtained in the absence of test antagonist. IC50 values can be calculated from concentration response curve by nonlinear regression analysis using GraphPad PRISM software.
# [2] = target: T2, Rat TRPA1 expressing CHO cells (Rattus norvegicus, UniProt Q6RI86); test: 45Calcium uptake assay, inhibition of AITC induced calcium uptake (rat); type: cell-based; conditions: rat TRPA1 CHO cells, AITC 10 μM; for IC50: read-out: Rat IC50 value (Range); for inhibition at 1 µM: compound 1.0 μM, read-out: Percentage inhibition at 1.0 μM; for inhibition at 10 µM: compound 10.0 μM, read-out: Percentage inhibition at 10.0 μM
# T2 construct: expressed in transfected cells; host or cells: CHO cells (Zeocin selection)
# Protocol: as §1, §2, §3, §4
# T2 sequence (Q6RI86 whole entry): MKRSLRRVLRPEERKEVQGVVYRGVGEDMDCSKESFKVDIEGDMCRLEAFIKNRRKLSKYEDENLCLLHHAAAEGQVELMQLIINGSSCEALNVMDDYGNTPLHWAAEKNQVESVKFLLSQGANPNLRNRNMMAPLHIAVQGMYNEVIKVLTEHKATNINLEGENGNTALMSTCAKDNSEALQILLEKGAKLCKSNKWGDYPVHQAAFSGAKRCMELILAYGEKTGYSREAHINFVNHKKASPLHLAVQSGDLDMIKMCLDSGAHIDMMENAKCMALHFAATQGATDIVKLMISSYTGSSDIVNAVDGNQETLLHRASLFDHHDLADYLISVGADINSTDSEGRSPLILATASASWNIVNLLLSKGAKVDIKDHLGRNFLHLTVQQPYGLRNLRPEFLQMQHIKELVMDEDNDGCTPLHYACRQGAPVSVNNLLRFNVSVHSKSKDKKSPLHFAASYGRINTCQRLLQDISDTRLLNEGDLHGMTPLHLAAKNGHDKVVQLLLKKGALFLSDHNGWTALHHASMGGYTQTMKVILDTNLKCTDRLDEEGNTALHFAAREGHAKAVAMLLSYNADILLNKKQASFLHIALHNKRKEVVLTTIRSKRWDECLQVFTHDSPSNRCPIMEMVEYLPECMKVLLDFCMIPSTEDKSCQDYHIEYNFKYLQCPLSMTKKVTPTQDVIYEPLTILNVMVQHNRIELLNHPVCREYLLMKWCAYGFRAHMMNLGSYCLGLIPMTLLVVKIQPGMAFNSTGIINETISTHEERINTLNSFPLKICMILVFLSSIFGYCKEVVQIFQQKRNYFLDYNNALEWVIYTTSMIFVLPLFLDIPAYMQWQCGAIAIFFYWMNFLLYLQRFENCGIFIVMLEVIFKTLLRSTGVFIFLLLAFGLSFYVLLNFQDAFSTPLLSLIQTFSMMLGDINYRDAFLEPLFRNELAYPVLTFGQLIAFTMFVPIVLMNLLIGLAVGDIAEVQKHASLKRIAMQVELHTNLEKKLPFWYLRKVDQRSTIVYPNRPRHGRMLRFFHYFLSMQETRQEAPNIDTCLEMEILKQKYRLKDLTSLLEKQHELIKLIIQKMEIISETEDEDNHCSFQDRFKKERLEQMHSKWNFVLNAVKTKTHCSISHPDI
# T1 sequence (O75762 whole entry): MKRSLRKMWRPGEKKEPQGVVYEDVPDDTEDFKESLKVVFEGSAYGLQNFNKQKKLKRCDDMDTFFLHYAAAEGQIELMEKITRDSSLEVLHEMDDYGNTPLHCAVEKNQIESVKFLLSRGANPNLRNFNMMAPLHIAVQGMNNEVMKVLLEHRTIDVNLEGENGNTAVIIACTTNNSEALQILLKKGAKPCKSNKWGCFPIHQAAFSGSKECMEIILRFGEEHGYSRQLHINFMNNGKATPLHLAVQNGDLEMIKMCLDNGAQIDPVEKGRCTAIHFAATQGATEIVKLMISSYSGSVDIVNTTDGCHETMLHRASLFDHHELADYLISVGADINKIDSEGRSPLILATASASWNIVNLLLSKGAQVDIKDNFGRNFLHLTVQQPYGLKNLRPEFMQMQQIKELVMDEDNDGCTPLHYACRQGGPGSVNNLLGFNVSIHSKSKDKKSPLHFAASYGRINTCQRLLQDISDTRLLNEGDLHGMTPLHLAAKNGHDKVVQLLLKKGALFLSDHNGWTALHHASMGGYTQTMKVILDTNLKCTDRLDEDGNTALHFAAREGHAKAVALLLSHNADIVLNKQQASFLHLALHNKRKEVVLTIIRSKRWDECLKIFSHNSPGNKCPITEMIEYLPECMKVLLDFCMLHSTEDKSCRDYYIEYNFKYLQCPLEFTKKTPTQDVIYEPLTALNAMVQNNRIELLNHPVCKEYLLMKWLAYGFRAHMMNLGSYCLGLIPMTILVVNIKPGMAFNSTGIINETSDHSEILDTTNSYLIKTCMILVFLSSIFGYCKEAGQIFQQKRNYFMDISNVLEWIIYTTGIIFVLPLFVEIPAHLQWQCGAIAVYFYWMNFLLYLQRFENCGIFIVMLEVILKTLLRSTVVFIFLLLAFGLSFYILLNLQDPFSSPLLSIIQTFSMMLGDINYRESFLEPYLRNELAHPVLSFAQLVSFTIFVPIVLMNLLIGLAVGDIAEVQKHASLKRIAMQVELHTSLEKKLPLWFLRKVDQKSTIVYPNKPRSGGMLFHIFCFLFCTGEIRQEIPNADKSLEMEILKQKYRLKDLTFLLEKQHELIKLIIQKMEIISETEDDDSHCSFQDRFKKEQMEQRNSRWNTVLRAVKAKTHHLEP
inhibition at 1 µM [1] [%],inhibition at 10 µM [1] [%],IC50 [1] [nM],IC50 [2] [nM],inhibition at 1 µM [2] [%],inhibition at 10 µM [2] [%],SMILES
98.2,98.1,< 50,< 50,,,"Cn1c(=O)c2c(CC(=O)Nc3nc(-c4ccc(F)c(C(F)(F)F)c4F)cs3)csc2n(C)c1=O [Example 13, N-{4-[2,4-Difluoro-3-(trifluoromethyl)phenyl]-1,3-thiazol-2-yl}-2-(1,3-dimethyl-2,4-dioxo-1,2,3,4-tetrahydrothieno[2,3-d]pyrimidin-5-yl)acetamide]"
99.1,99.1,< 50,,38.7,98.7,"Cn1c(=O)c2c(CC(=O)Nc3nc(-c4cc(F)c(C(F)(F)F)c(F)c4)cs3)csc2n(C)c1=O [Example 16, N-{4-[3,5-Difluoro-4-(trifluoromethyl)phenyl]-thiazol-2-yl}-2-(1,3-dimethyl-2,4-dioxo-1,2,3,4-tetrahydrothieno[2,3-d]pyrimidin-5-yl)acetamide]"
97.5,98.8,50 to 500,50 to 500,93.1,99.2,"Cc1sc2c(c1CC(=O)Nc1nc(-c3ccc(C(C)(C)C)cc3)cs1)c(=O)n(C)c(=O)n2C [Example 17, N-[4-(4-tert-Butylphenyl)-1,3-thiazol-2-yl]-2-(1,3,6-trimethyl-2,4-dioxo-1,2,3,4-tetrahydrothieno[2,3-d]pyrimidin-5-yl)acetamide]"
98.5,100,50 to 500,,95.7,100,"Cc1sc2c(c1CC(=O)Nc1nc(-c3cccc(OC(F)(F)F)c3)cs1)c(=O)n(C)c(=O)n2C [Example 18, N-{4-[3-(Trifluoromethoxy)phenyl]-1,3-thiazol-2-yl}-2-(1,3,6-trimethyl-2,4-dioxo-1,2,3,4-tetrahydrothieno[2,3-d]pyrimidin-5-yl)acetamide]"
95,98.2,50 to 500,,89.4,99.2,"Cc1sc2c(c1CC(=O)Nc1nc(-c3ccc(Cl)cc3)cs1)c(=O)n(C)c(=O)n2C [Example 19, N-[4-(4-Chlorophenyl)-1,3-thiazol-2-yl]-2-(1,3,6-trimethyl-2,4-dioxo-1,2,3,4-tetrahydrothieno[2,3-d]pyrimidin-5-yl)acetamide]"
99,99.6,< 50,50 to 500,83.4,91.2,"Cc1sc2c(c1CC(=O)Nc1nc(-c3ccc(Cl)c(Cl)c3)cs1)c(=O)n(C)c(=O)n2C [Example 20, N-[4-(3,4-Dichlorophenyl)-1,3-thiazol-2-yl]-2-(1,3,6-trimethyl-2,4-dioxo-1,2,3,4-tetrahydrothieno[2,3-d]pyrimidin-5-yl)acetamide]"
95.4,100,50 to 500,,93.5,99.7,"Cc1sc2c(c1CC(=O)Nc1nc(-c3cccc(F)c3F)cs1)c(=O)n(C)c(=O)n2C [Example 21, N-[4-(2,3-Difluorophenyl)-1,3-thiazol-2-yl]-2-(1,3,6-trimethyl-2,4-dioxo-1,2,3,4-tetrahydrothieno[2,3-d]pyrimidin-5-yl)acetamide]"
89.8,100,50 to 500,,89.8,99.8,"Cc1sc2c(c1CC(=O)Nc1nc(-c3ccc(F)cc3F)cs1)c(=O)n(C)c(=O)n2C [Example 22, N-[4-(2,4-Difluorophenyl)-1,3-thiazol-2-yl]-2-(1,3,6-trimethyl-2,4-dioxo-1,2,3,4-tetrahydrothieno[2,3-d]pyrimidin-5-yl)acetamide]"
97.7,99,< 50,50 to 500,100,99.7,"Cc1sc2c(c1CC(=O)Nc1nc(-c3ccc(F)c(C(F)(F)F)c3)cs1)c(=O)n(C)c(=O)n2C [Example 23, N-{4-[4-Fluoro-3-(trifluoromethyl)phenyl]-1,3-thiazol-2-yl}-2-(1,3,6-trimethyl-2,4-dioxo-1,2,3,4-tetrahydrothieno[2,3-d]pyrimidin-5-yl)acetamide]"
98.5,99.9,< 50,50 to 500,99.8,100,"Cc1sc2c(c1CC(=O)Nc1nc(-c3ccc(C(F)(F)F)c(F)c3)cs1)c(=O)n(C)c(=O)n2C [Example 24, N-{4-[3-Fluoro-4-(trifluoromethyl)phenyl]-1,3-thiazol-2-yl}-2-(1,3,6-trimethyl-2,4-dioxo-1,2,3,4-tetrahydrothieno[2,3-d]pyrimidin-5-yl)acetamide]"
98.5,98.8,< 50,50 to 500,99.2,99.3,"Cc1sc2c(c1CC(=O)Nc1nc(-c3ccc(F)c(OC(F)(F)F)c3)cs1)c(=O)n(C)c(=O)n2C [Example 25, N-{4-[4-Fluoro-3-(trifluoromethoxy)phenyl]-1,3-thiazol-2-yl}-2-(1,3,6-trimethyl-2,4-dioxo-1,2,3,4-tetrahydrothieno[2,3-d]pyrimidin-5-yl)acetamide]"
100,100,< 50,50 to 500,98.2,98.1,"Cc1sc2c(c1CC(=O)Nc1nc(-c3ccc(OC(F)(F)F)c(F)c3)cs1)c(=O)n(C)c(=O)n2C [Example 26, N-{4-[3-Fluoro-4-(trifluoromethoxy)phenyl]-1,3-thiazol-2-yl}-2-(1,3,6-trimethyl-2,4-dioxo-1,2,3,4-tetrahydrothieno[2,3-d]pyrimidin-5-yl)acetamide]"
93.2,99.1,< 50,50 to 500,97.9,98,"Cc1sc2c(c1CC(=O)Nc1nc(-c3ccc(F)c(C(F)(F)F)c3F)cs1)c(=O)n(C)c(=O)n2C [Example 27, N-{4-[2,4-Difluoro-3-(trifluoromethyl)phenyl]-1,3-thiazol-2-yl}-2-(1,3,6-trimethyl-2,4-dioxo-1,2,3,4-tetrahydrothieno[2,3-d]pyrimidin-5-yl)acetamide]"
88.9,98.4,50 to 500,,46.4,83.6,"CCc1sc2c(c1CC(=O)Nc1nc(-c3ccc(C#N)cc3)cs1)c(=O)n(C)c(=O)n2C [Example 30, N-[4-(4-Cyanophenyl)-1,3-thiazol-2-yl]-2-(6-ethyl-1,3-dimethyl-2,4-dioxo-1,2,3,4-tetrahydrothieno[2,3-d]pyrimidin-5-yl)acetamide]"
98,98.5,< 50,50 to 500,96.8,97.3,"CCc1sc2c(c1CC(=O)Nc1nc(-c3ccc(C(F)(F)F)c(F)c3)cs1)c(=O)n(C)c(=O)n2C [Example 31, N-{4-[3-Fluoro-4-(trifluoromethyl)phenyl]-1,3-thiazol-2-yl}-2-(6-ethyl-1,3-dimethyl-2,4-dioxo-1,2,3,4-tetrahydrothieno[2,3-d]pyrimidin-5-yl)acetamide]"

# Source: US9474758B2, “Thienopyrimidinedione derivatives as TRPA1 modulators” (Glenmark Pharmaceuticals S.A., priority 2009, dated 2016)
